Laboratory results: patent US20240000872A1, “NOVEL BACTERIOPHAGE THAT LYSES ACINETOBACTER GENUS BACTERIA HAVING RESISTANCE TO ANTIBIOTICS” (priority 2020, published 2024)

Tested on: Acinetobacter baumannii strains
Assay: Antibiotic susceptibility test (CLSI disk diffusion test method, read per CLSI 2016)
Assay type: cell-based
Set-up: antibiotic susceptibility test value / susceptibility test value (number given before S/I/R) / antibiotic susceptibility value: unit not given here
Description: (§1) Strain identification was performed using a kit such as AT 32 GN system (bioMérieux, Marcy l'Etoile, France). […] In Table 2 below, S, I, and R are the results obtained by evaluating susceptibility to the antibacterial agents, in which ‘S’ means susceptible, ‘I’ means intermediate, and ‘R’ means resistant.
as §1, with “as ATB” for “as AT”, “system (bioMédrieux,” for “system (bioMérieux,”, “Table 6” for “Table 2”
as §1, with “as ATB” for “as AT”, “Table 10” for “Table 2”, “susceptible, T” for “susceptible, ‘I’”

Substance: gentamicin
- antibiotic susceptibility value (host strain YMC16/01/R353): 16
- susceptibility category (S/I/R) (host strain YMC16/01/R353): R
- susceptibility test value (number given before S/I/R) (host strain YMC16/01/R353): 16
- antibiotic susceptibility S/I/R (host strain YMC16/01/R380): R
- antibiotic susceptibility value (host strain YMC16/01/R380): 16
- susceptibility category (S/I/R) (host strain YMC16/01/R380): R
- susceptibility test value (number given before S/I/R) (host strain YMC16/01/R380): 16
- antibiotic susceptibility S/I/R (host strain YMC16/01/R397): R
- antibiotic susceptibility value (host strain YMC16/01/R397): 16
- susceptibility category (S/I/R) (host strain YMC16/01/R397): R
- susceptibility test value (number given before S/I/R) (host strain YMC16/01/R397): 16
- antibiotic susceptibility S/I/R (host strain YMC16/01/R405): R
- antibiotic susceptibility value (host strain YMC16/01/R405): 16
- susceptibility category (S/I/R) (host strain YMC16/01/R405): R
- susceptibility test value (number given before S/I/R) (host strain YMC16/01/R405): 16
- antibiotic susceptibility S/I/R (host strain YMC16/03/R4461): R
- antibiotic susceptibility value (host strain YMC16/03/R4461): 16
- susceptibility category (S/I/R) (host strain YMC16/03/R4461): R
- susceptibility test value (number given before S/I/R) (host strain YMC16/03/R4461): 16
- antibiotic susceptibility S/I/R (host strain YMC16/05/R2210): R
- antibiotic susceptibility value (host strain YMC16/05/R2210): 16
- susceptibility category (S/I/R) (host strain YMC16/05/R2210): R
- susceptibility test value (number given before S/I/R) (host strain YMC16/05/R2210): 16
- antibiotic susceptibility S/I/R (host strain YMC16/07/R2512): R
- antibiotic susceptibility value (host strain YMC16/07/R2512): 16
- susceptibility category (S/I/R) (host strain YMC16/07/R2512): R
- susceptibility test value (number given before S/I/R) (host strain YMC16/07/R2512): 16
- antibiotic susceptibility S/I/R (host strain YMC16/09/R2471): R
- antibiotic susceptibility value (host strain YMC16/09/R2471): 16
- susceptibility category (S/I/R) (host strain YMC16/09/R2471): R
- susceptibility test value (number given before S/I/R) (host strain YMC16/09/R2471): 16
- antibiotic susceptibility S/I/R (host strain YMC16/10/R2537): R
- antibiotic susceptibility value (host strain YMC16/10/R2537): 16
- susceptibility category (S/I/R) (host strain YMC16/10/R2537): R
- susceptibility test value (number given before S/I/R) (host strain YMC16/10/R2537): 16
- antibiotic susceptibility S/I/R (host strain YMC16/12/B11422): R
- antibiotic susceptibility value (host strain YMC16/12/B11422): 16
- susceptibility category (S/I/R) (host strain YMC16/12/B11422): R
- susceptibility test value (number given before S/I/R) (host strain YMC16/12/B11422): 16
- antibiotic susceptibility S/I/R (host strain YMC16/12/B11449): R
- antibiotic susceptibility value (host strain YMC16/12/B11449): 16
- susceptibility category (S/I/R) (host strain YMC16/12/B11449): R
- susceptibility test value (number given before S/I/R) (host strain YMC16/12/B11449): 16
- antibiotic susceptibility S/I/R (host strain YMC16/12/B13325): R
- antibiotic susceptibility value (host strain YMC16/12/B13325): 16
- susceptibility category (S/I/R) (host strain YMC16/12/B13325): R
- susceptibility test value (number given before S/I/R) (host strain YMC16/12/B13325): 16
- antibiotic susceptibility S/I/R (host strain YMC16/12/P503): R
- antibiotic susceptibility value (host strain YMC16/12/P503): 16
- susceptibility category (S/I/R) (host strain YMC16/12/P503): R
- susceptibility test value (number given before S/I/R) (host strain YMC16/12/P503): 16
- antibiotic susceptibility S/I/R (host strain YMC16/12/R4637): R
- antibiotic susceptibility value (host strain YMC16/12/R4637): 16
- susceptibility category (S/I/R) (host strain YMC16/12/R4637): R
- susceptibility test value (number given before S/I/R) (host strain YMC16/12/R4637): 16
- antibiotic susceptibility S/I/R (host strain YMC17/01/B8053): R
- antibiotic susceptibility value (host strain YMC17/01/B8053): 16
- susceptibility category (S/I/R) (host strain YMC17/01/B8053): R
- susceptibility test value (number given before S/I/R) (host strain YMC17/01/B8053): 16
- antibiotic susceptibility S/I/R (host strain YMC17/01/B10087): R
- antibiotic susceptibility value (host strain YMC17/01/B10087): 16
- susceptibility category (S/I/R) (host strain YMC17/01/B10087): R
- susceptibility test value (number given before S/I/R) (host strain YMC17/01/B10087): 16
- antibiotic susceptibility S/I/R (host strain YMC17/01/B12075): S
- antibiotic susceptibility value (host strain YMC17/01/B12075): 1
- susceptibility category (S/I/R) (host strain YMC17/01/B12075): S
- susceptibility test value (number given before S/I/R) (host strain YMC17/01/B12075): 1
- antibiotic susceptibility S/I/R (host strain YMC17/01/B13454): R
- antibiotic susceptibility value (host strain YMC17/01/B13454): 16
- susceptibility category (S/I/R) (host strain YMC17/01/B13454): R
- susceptibility test value (number given before S/I/R) (host strain YMC17/01/B13454): 16
- antibiotic susceptibility S/I/R (host strain YMC17/01/P518): R
- antibiotic susceptibility value (host strain YMC17/01/P518): 16
- susceptibility category (S/I/R) (host strain YMC17/01/P518): R
- susceptibility test value (number given before S/I/R) (host strain YMC17/01/P518): 16
- antibiotic susceptibility S/I/R (host strain YMC17/01/R2812): R
- antibiotic susceptibility value (host strain YMC17/01/R2812): 16
- susceptibility category (S/I/R) (host strain YMC17/01/R2812): R
- susceptibility test value (number given before S/I/R) (host strain YMC17/01/R2812): 16
- antibiotic susceptibility S/I/R (host strain YMC17/02/B14): R
- antibiotic susceptibility value (host strain YMC17/02/B14): 16
- susceptibility category (S/I/R) (host strain YMC17/02/B14): R
- susceptibility test value (number given before S/I/R) (host strain YMC17/02/B14): 16
- antibiotic susceptibility S/I/R (host strain YMC17/02/B87): S
- antibiotic susceptibility value (host strain YMC17/02/B87): 2
- susceptibility category (S/I/R) (host strain YMC17/02/B87): S
- susceptibility test value (number given before S/I/R) (host strain YMC17/02/B87): 2
- antibiotic susceptibility S/I/R (host strain YMC17/02/B721): R
- antibiotic susceptibility value (host strain YMC17/02/B721): 16
- susceptibility category (S/I/R) (host strain YMC17/02/B721): R
- susceptibility test value (number given before S/I/R) (host strain YMC17/02/B721): 16
- antibiotic susceptibility S/I/R (host strain YMC17/02/B4039): R
- antibiotic susceptibility value (host strain YMC17/02/B4039): 16
- susceptibility category (S/I/R) (host strain YMC17/02/B4039): R
- susceptibility test value (number given before S/I/R) (host strain YMC17/02/B4039): 16
- antibiotic susceptibility S/I/R (host strain YMC17/02/B4520): R
- antibiotic susceptibility value (host strain YMC17/02/B4520): 16
- susceptibility category (S/I/R) (host strain YMC17/02/B4520): R
- susceptibility test value (number given before S/I/R) (host strain YMC17/02/B4520): 16
- antibiotic susceptibility S/I/R (host strain YMC17/02/B4864): S
- antibiotic susceptibility value (host strain YMC17/02/B4864): 1
- susceptibility category (S/I/R) (host strain YMC17/02/B4864): S
- susceptibility test value (number given before S/I/R) (host strain YMC17/02/B4864): 1
- antibiotic susceptibility S/I/R (host strain YMC17/02/B8414): R
- antibiotic susceptibility value (host strain YMC17/02/B8414): 16
- susceptibility category (S/I/R) (host strain YMC17/02/B8414): R
- susceptibility test value (number given before S/I/R) (host strain YMC17/02/B8414): 16
- antibiotic susceptibility S/I/R (host strain YMC17/02/P523): S
- antibiotic susceptibility value (host strain YMC17/02/P523): 4
- susceptibility category (S/I/R) (host strain YMC17/02/P523): S
- susceptibility test value (number given before S/I/R) (host strain YMC17/02/P523): 4
- antibiotic susceptibility S/I/R (host strain YMC17/02/R541): R
- antibiotic susceptibility value (host strain YMC17/02/R541): 16
- susceptibility category (S/I/R) (host strain YMC17/02/R541): R
- susceptibility test value (number given before S/I/R) (host strain YMC17/02/R541): 16
- antibiotic susceptibility S/I/R (host strain YMC17/02/R2392): R
- antibiotic susceptibility value (host strain YMC17/02/R2392): 16
- susceptibility category (S/I/R) (host strain YMC17/02/R2392): R
- susceptibility test value (number given before S/I/R) (host strain YMC17/02/R2392): 16
- antibiotic susceptibility S/I/R (host strain YMC17/03/B4730): R
- antibiotic susceptibility value (host strain YMC17/03/B4730): 16
- susceptibility category (S/I/R) (host strain YMC17/03/B4730): R
- susceptibility test value (number given before S/I/R) (host strain YMC17/03/B4730): 16
- antibiotic susceptibility S/I/R (host strain YMC17/03/B5000): R
- antibiotic susceptibility value (host strain YMC17/03/B5000): 16
- susceptibility category (S/I/R) (host strain YMC17/03/B5000): R
- susceptibility test value (number given before S/I/R) (host strain YMC17/03/B5000): 16
- antibiotic susceptibility S/I/R (host strain YMC17/03/P971): R
- antibiotic susceptibility value (host strain YMC17/03/P971): 16
- susceptibility category (S/I/R) (host strain YMC17/03/P971): R
- susceptibility test value (number given before S/I/R) (host strain YMC17/03/P971): 16
- antibiotic susceptibility S/I/R (host strain YMC17/03/R348): R
- antibiotic susceptibility value (host strain YMC17/03/R348): 16
- susceptibility category (S/I/R) (host strain YMC17/03/R348): R
- susceptibility test value (number given before S/I/R) (host strain YMC17/03/R348): 16
- antibiotic susceptibility S/I/R (host strain YMC17/03/R585): R
- antibiotic susceptibility value (host strain YMC17/03/R585): 16
- susceptibility category (S/I/R) (host strain YMC17/03/R585): R
- susceptibility test value (number given before S/I/R) (host strain YMC17/03/R585): 16
- antibiotic susceptibility S/I/R (host strain YMC17/03/R1888): R
- antibiotic susceptibility value (host strain YMC17/03/R1888): 16
- susceptibility category (S/I/R) (host strain YMC17/03/R1888): R
- susceptibility test value (number given before S/I/R) (host strain YMC17/03/R1888): 16
- antibiotic susceptibility S/I/R (host strain YMC17/03/R3279): R
- antibiotic susceptibility value (host strain YMC17/03/R3279): 16
- susceptibility category (S/I/R) (host strain YMC17/03/R3279): R
- susceptibility test value (number given before S/I/R) (host strain YMC17/03/R3279): 16
- antibiotic susceptibility S/I/R (host strain YMC17/03/R4077): R
- antibiotic susceptibility value (host strain YMC17/03/R4077): 16
- susceptibility category (S/I/R) (host strain YMC17/03/R4077): R
- susceptibility test value (number given before S/I/R) (host strain YMC17/03/R4077): 16
- antibiotic susceptibility S/I/R (host strain YMC17/03/R4607): R
- antibiotic susceptibility value (host strain YMC17/03/R4607): 16
- susceptibility category (S/I/R) (host strain YMC17/03/R4607): R
- susceptibility test value (number given before S/I/R) (host strain YMC17/03/R4607): 16
- antibiotic susceptibility S/I/R (host strain YMC17/04/R488): R
- antibiotic susceptibility value (host strain YMC17/04/R488): 16
- susceptibility category (S/I/R) (host strain YMC17/04/R488): R
- susceptibility test value (number given before S/I/R) (host strain YMC17/04/R488): 16
- antibiotic susceptibility S/I/R (host strain YMC17/04/R640): R
- antibiotic susceptibility value (host strain YMC17/04/R640): 16
- susceptibility category (S/I/R) (host strain YMC17/04/R640): R
- susceptibility test value (number given before S/I/R) (host strain YMC17/04/R640): 16
- antibiotic susceptibility S/I/R (host strain YMC/17/05/R1095): R
- antibiotic susceptibility value (host strain YMC/17/05/R1095): 16
- susceptibility category (S/I/R) (host strain YMC/17/05/R1095): R
- susceptibility test value (number given before S/I/R) (host strain YMC/17/05/R1095): 16
